In patent US7772245B2, “Inhibitors of histone deacetylase” (Miikana Therapeutics, Inc., priority 2005, dated 2010) one finds inhibition data, which are given here for 13 compounds.

For the experiment, the system named is HCT116 cells. Briefly: Whole cell cytotoxicity assay: Sulforhodamine B. The experiment is classed as cell-based. Particulars: Homo sapiens, HCT-116; 100 μM compound; 48 hours incubation with drug; Sulforhodamine B staining; read-out: % Inhibition of HCT116 cell growth @ 100 μM. On the procedure:
[The source words this procedure for another cell line and reports this cell line under the same test.] The following procedure can be found on the Developmental Therapeutics Program NCl/NIH web site at http://dtp.nci.nih.gov/brancehes/btb/ivclsp.html. • 1. Human tumor cell lines of HT29, A549 and MCF7 are grown in DMEM containing 10% fetal bovine serum and 2 mM L-glutamine. Cells are plated in a 96 well plate at a density of 5000 cells per well in 100 μL of growth medium and incubated at 37° C., 5% CO2, for 24 hours prior to the addition of experimental compounds. • 2. Experimental drugs are solubilized in DMSO for a final concentration of 20 mM immediately prior to use. Drugs are further diluted in growth media for a total of nine drug concentrations and a growth control. At the 24 hour time point, one plate of cells is fixed in situ with TCA as a measurement of the cell population at time zero, or the time of drug addition. • 3. The plates are further incubated with drug for an additional 48 hours. • 4. The cells are fixed in situ by gently aspirating off the culture media and then adding 50 μL of ice cold 10% TCA per well and incubated at 4° C. for 60 minutes. The plates are washed with tap water five times and allowed to air dry for 5 minute. • 5. 50 μL of a 0.4% (w/v) Sulforhodamine B solution in 1% (v/v) acetic acid is added per well and incubated for 30 minutes at room temperature. • 6. Following staining, plates are washed five times with 1% acetic acid to remove any unbound dye and then allowed to air dry for 5 minutes. • 7. Stain is solubilized with 100 μL of 10 mM Tris pH 10.5 per well and placed on an orbital rotator for 5 minutes. • 8. Absorbance is read at 570 nm.
A general note: The SRB assay estimates cell density from bound dye.
With `O=C(NO)c1cnc(N2CCc3[nH]c4ccc(-c5ccc(CN6CCSCC6)cc5)cc4c3C2)nc1` [Example 105, N-hydroxy-2-{8-[4-(thiomorpholin-4-ylmethyl)phenyl]-1,3,4,5-tetrahydro-2H-pyrido[4,3-b]indol-2-yl}pyrimidine-5-carboxamide], the inhibition at 100 µM came out at 97%.

For `O=C(NO)c1cnc(N2CCc3[nH]c4ccc(-c5cccnc5)cc4c3C2)nc1` [Example 47, N-hydroxy-2-{8-(pyridin-3-yl)-1,3,4,5-tetrahydro-2H-pyrido[4,3-b]indol-2-yl}pyrimidine-5-carboxamide], the inhibition at 100 µM was 98.1%.

For `CN(C)Cc1cccc(-c2ccc3[nH]c4c(c3c2)CN(c2ncc(C(=O)NO)cn2)CC4)c1` [Example 92, N-hydroxy-2-{8-[3-(N,N-dimethylaminomethyl)phenyl]-1,3,4,5-tetrahydro-2H-pyrido[4,3-b]indol-2-yl}pyrimidine-5-carboxamide], the inhibition at 100 µM came to 98.9%.

`O=C(NO)c1cnc(N2CCc3[nH]c4ccc(-c5cccc(C(=O)N6CCCC6)c5)cc4c3C2)nc1` [Example 42, N-hydroxy-2-{8-[3-(pyrrolidin-1-ylcarbonyl)phenyl]-1,3,4,5-tetrahydro-2H-pyrido[4,3-b]indol-2-yl}pyrimidine-5-carboxamide]: the inhibition at 100 µM stood at 88%.

For `CS(=O)(=O)Nc1cccc(-c2ccc3[nH]c4c(c3c2)CN(c2ncc(C(=O)NO)cn2)CC4)c1` [Example 88, N-hydroxy-2-{8-[3-(N-methylsulfonamido)phenyl]-1,3,4,5-tetrahydro-2H-pyrido[4,3-b]indol-2-yl}pyrimidine-5-carboxamide], the inhibition at 100 µM is 98.4%.

As for `O=C(NO)c1ccc(N2CCc3c([nH]c4ccccc34)C2)nc1` [Example 4, N-hydroxy-6-(1,3,4,9-tetrahydro-2H-b-carbolin-2-yl)nicotinamide], the inhibition at 100 µM is 98.5%.

As to `O=C(NO)c1cnc(N2CCc3[nH]c4ccc(F)cc4c3C2)nc1` [Example 111, N-hydroxy-2-(8-fluoro-1,3,4,5-tetrahydro-2H-pyrido[4,3-b]indol-2-yl)pyrimidine-5-carboxamide], the inhibition at 100 µM came out at 97.7%.

Consider `O=C(NO)c1cnc(N2CCc3[nH]c4ccccc4c3CC2)nc1` [Example 114, N-hydroxy-2-(1,4,5,6-tetrahydroazepino[4,5-b]indol-3(2H)-1-yl)pyrimidine-5-carboxamide], for which the inhibition at 100 µM is 99.3%.

Take `CC(=O)Nc1ccc2[nH]c3c(c2c1)CN(c1ncc(C(=O)NO)cn1)CC3` [Example 77, N-hydroxy-2-(8-(N-acetamido)-1,3,4,5-tetrahydro-2H-pyrido[4,3-b]indol-2-yl)pyrimidine-5-carboxamide]: the inhibition at 100 µM came to 98.1%.

As for `O=C(NO)c1cnc(N2CCc3[nH]c4cc(-c5cccc(CN6CCCC6)c5)ccc4c3C2)nc1` [Example 121, N-hydroxy-2-{7-[3-(pyrrolidin-1-ylmethyl)phenyl]-1,3,4,5-tetrahydro-2H-pyrido[4,3-b]indol-2-yl}pyrimidine-5-carboxamide], the inhibition at 100 µM is 97.5%.

With `O=C(NO)c1cnc(N2CCc3[nH]c4ccc(-c5ccc(CN6CCCC6)cc5)cc4c3C2)nc1` [Example 103, N-hydroxy-2-{8-[4-(pyrrolidin-1-ylmethyl)phenyl]-1,3,4,5-tetrahydro-2H-pyrido[4,3-b]indol-2-yl}pyrimidine-5-carboxamide], the inhibition at 100 µM came out at 98.9%.

Consider `O=C(NO)c1ccc(N2CCc3c([nH]c4ccccc34)C2)cc1` [Example 18, N-hydroxy-4-(1,3,4,9-tetrahydro-2H-b-carbolin-2-yl)benzamide], for which the inhibition at 100 µM is 98.5%.

Take `O=C(NO)c1cnc(N2CCc3[nH]c4ccc(F)cc4c3CC2)nc1` [Example 115, N-hydroxy-2-(9-fluoro-1,4,5,6-tetrahydroazepino[4,5-b]indol-3(2H)-1-yl)pyrimidine-5-carboxamide]: the inhibition at 100 µM amounted to 98.8%.

As a reminder, the inhibition is the relative decrease from the control value, in per cent.
